Data reported in publication PMC7560827, “Immunodominant proteins P1 and P40/P90 from human pathogen Mycoplasma pneumoniae” (Nature Communications, 2020).

Experiments:
P40/P90N [1] = target: T1, P40/P90N (Mycoplasmoides pneumoniae, UniProt Q50341)
T1 construct: gene orf6

P40/P90N [2] = target: T1, P40/P90N; remark: listed apart in the source

SMILES	X-ray crystal structure, 3.2 Å (P40/P90N [1]) [TLZ for the 3SL complex]	X-ray crystal structure, 2.8 Å (P40/P90N [2]) [TM0 for the 6SL complex]
CC(=O)N[C@H]1[C@H]([C@H](O)[C@H](O)CO)O[C@@](O[C@H]2[C@@H](O)[C@@H](CO)O[C@@H](O[C@H]3[C@H](O)[C@@H](O)C(O)O[C@@H]3CO)[C@@H]2O)(C(=O)O)C[C@@H]1O (some centres unmarked) [3SL]	6	
CC(=O)N[C@H]1[C@H]([C@H](O)[C@H](O)CO)O[C@@](OC[C@H]2O[C@@H](O[C@H]3[C@H](O)[C@@H](O)C(O)O[C@@H]3CO)[C@H](O)[C@@H](O)[C@H]2O)(C(=O)O)C[C@@H]1O (some centres unmarked) [6SL]		6
